In ChEMBL document CHEMBL4346722, “Recent progress on the discovery of P2Y14 receptor antagonists” (Eur J Med Chem, 2019):

Experiments:
[1] = Inhibition of chimpanzee P2Y14 receptor; design: species or system Pan troglodytes
P2Y purinoceptor 14 [2] = biological target: T1, P2Y purinoceptor 14 (Mus musculus, UniProt Q9ESG6); experiment: Inhibition of mouse P2Y14 receptor
T1 sequence (Q9ESG6 whole entry): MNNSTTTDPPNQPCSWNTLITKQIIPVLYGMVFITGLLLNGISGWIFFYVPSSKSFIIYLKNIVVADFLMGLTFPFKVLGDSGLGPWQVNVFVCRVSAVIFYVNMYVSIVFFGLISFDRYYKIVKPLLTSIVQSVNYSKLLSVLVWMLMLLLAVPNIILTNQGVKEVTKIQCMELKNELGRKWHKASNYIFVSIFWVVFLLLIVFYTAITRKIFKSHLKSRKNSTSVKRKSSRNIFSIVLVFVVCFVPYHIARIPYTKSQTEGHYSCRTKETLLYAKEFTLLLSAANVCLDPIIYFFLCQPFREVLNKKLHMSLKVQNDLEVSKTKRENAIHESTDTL

[3] = Clearance in C57BL/6 mouse at 50 mg/kg, po; format: ADME, organism-based; settings: in vivo
[4] = Half life in C57BL/6 mouse at 50 mg/kg, po; format: ADME, organism-based; settings: in vivo
P2Y purinoceptor 14 [5] = biological target: T1, P2Y purinoceptor 14; experiment: Inhibition of mouse P2Y14 receptor in presence of 2% HSA

| IC50 [1] [nM] | Ki [1] [nM] | Ki (P2Y purinoceptor 14 [2]) [nM] | CL/F [3] [mL/min/kg] | half-life [4] [h] | Ki (P2Y purinoceptor 14 [5]) [nM] | SMILES |
| --- | --- | --- | --- | --- | --- | --- |
| 4 | 14 |  |  |  |  | Cc1cc(F)cc(C)c1COc1ccc2c(-c3ccsc3)cc(C(=O)O)cc2c1 |
|  |  | 4 | 1.6 | 3 | 1290 | O=C(O)c1cc(-c2ccc([C@@H](O)C(F)F)cc2)c2ccc(-c3ccc(C(F)(F)F)cc3)cc2c1 |
|  | 1.9 |  |  |  |  | O=C(O)c1cc(-c2ccc(C3CCNCC3)cc2)c2ccc(-c3ccc(C(F)(F)F)cc3)cc2c1 [PPTN] |
